Laboratory results as given in patent US9925227B2, “Composition for treating obesity and method of using the same” (POLIFENOLES NATURALES S.L., priority 2006, dated 2018).

Test: Energy expenditure by indirect calorimetry, dose-response clinical trial
Assay type: in vivo, human
Settings: for Energy Expenditure: obese non-diabetic females with NAFLD; for Total Energy Expenditure, From (start value): baseline; for Total Energy Expenditure, to (end value): end of trial
Text: Obese subjects diagnosed with NAFLD and with apparently healthy liver (HL) were matched in pairs based on age, body weight and body fat mass and were randomly divided into Experimental NAFLD group (n=36), Placebo NAFLD (n=36), Experimental HL (n=19) and Placebo-HL group (n=19). Subjects were randomly assigned, in equal numbers, to the phytomedicine experimental groups and the Placebo control group, using the Simple Randomization Procedure. Their daily dietary intake was restricted to 1800±100 kcals, of which 50±5% was in the form of carbohydrates, 30±5% from protein, and 20±5% from fat. Subjects were also instructed to consume all the foods and beverages designated by dieticians and provided by the Institute, and to eat no other food or high calories beverages. Patients were directed to take Experimental Sample and/or Placebo three times a day before meals. During the clinical phase, subjects were required to visit a designated hospital three times a week for physiological and biochemical analysis. Institute provided all foods and beverages by designated dieticians and labeled as B, L, and D for breakfast, lunch and dinner, respectively.
Measurements of Fat Oxidation by Indirect Calorimetry
Energy expenditure (EE) and substrate oxidations were measured by indirect calorimetry as described previously (Ranneries et al., 1998). Oxygen was measured with an electrochemical oxygen sensor, and carbon dioxide was measured by an infrared carbon dioxide sensor (Ametec Carbon Dioxide Analyzer). Calculations of EE and substrate oxidation rates were performed as previously described (Astrup et al., 1991). Protein oxidation was assumed to be constant and amounting to 15% of EE. The error of calculating EE by omitting the exact correction from urinary nitrogen was negligible and impossible to estimate during such a short period of time. The reliability was assessed by the coefficient of variation on resting energy expenditure repeated every week.
This effect was clearly dose-dependent phenomenon. […] Based on our dose-response trial, the optimum dose of Experimental Sample was established as 600 mg per day, which was used in further clinical trials.

Fucoxanthin
increase in daily energy expenditure rate (25 mg fucoxanthin alone): 1152 ± 290 kJ/day | Energy Expenditure (Fucoxanthin 10 mg per day, 2 weeks): 5.69 ± 0.21 kJ/min | Energy Expenditure (Fucoxanthin 10 mg per day, 5 weeks): 5.93 ± 0.15 kJ/min | Energy Expenditure (Fucoxanthin 10 mg per day, 10 weeks): 5.69 ± 0.21 kJ/min | Energy Expenditure (Fucoxanthin 10 mg per day, 16 weeks): 5.98 ± 0.18 kJ/min | Energy Expenditure (Fucoxanthin 10 mg per day, Baseline): 5.82 ± 0.18 kJ/min | Total Energy Expenditure, From (start value) (Fucoxanthin 10 mg per day): 8381 kJ/24 h | Total Energy Expenditure, to (end value) (Fucoxanthin 10 mg per day): 8611 kJ/24 h | Change in Total Energy Expenditure, Net (Fucoxanthin 10 mg per day, p < NS vs placebo): Net 230 ± 147 kJ/24 h | Energy Expenditure (Fucoxanthin 15 mg per day, 2 weeks): 5.89 ± 0.14 kJ/min | Energy Expenditure (Fucoxanthin 15 mg per day, 5 weeks): 5.98 ± 0.17 kJ/min | Energy Expenditure (Fucoxanthin 15 mg per day, 10 weeks): 6.11 ± 0.21 kJ/min | Energy Expenditure (Fucoxanthin 15 mg per day, 16 weeks): 6.39 ± 0.17 kJ/min | Energy Expenditure (Fucoxanthin 15 mg per day, Baseline): 5.85 ± 0.27 kJ/min | Total Energy Expenditure, From (start value) (Fucoxanthin 15 mg per day): 8424 kJ/24 h | Total Energy Expenditure, to (end value) (Fucoxanthin 15 mg per day): 9202 kJ/24 h | Change in Total Energy Expenditure, Net (Fucoxanthin 15 mg per day, p < 0.05 vs placebo): Net 778 ± 260 kJ/24 h | Energy Expenditure (Fucoxanthin 25 mg per day, 2 weeks): 6.02 ± 0.23 kJ/min | Energy Expenditure (Fucoxanthin 25 mg per day, 5 weeks): 5.92 ± 0.27 kJ/min | Energy Expenditure (Fucoxanthin 25 mg per day, 10 weeks): 6.29 ± 0.31 kJ/min | Energy Expenditure (Fucoxanthin 25 mg per day, 16 weeks): 6.72 ± 0.22 kJ/min | Energy Expenditure (Fucoxanthin 25 mg per day, Baseline): 5.92 ± 0.16 kJ/min | Total Energy Expenditure, From (start value) (Fucoxanthin 25 mg per day): 8525 kJ/24 h | Total Energy Expenditure, to (end value) (Fucoxanthin 25 mg per day): 9677 kJ/24 h | Change in Total Energy Expenditure, Net (Fucoxanthin 25 mg per day, p < 0.05 vs placebo): Net 1152 ± 290 kJ/24 h | Energy Expenditure (Fucoxanthin 50 mg per day, 2 weeks): 5.91 ± 0.31 kJ/min | Energy Expenditure (Fucoxanthin 50 mg per day, 5 weeks): 6.32 ± 0.22 kJ/min | Energy Expenditure (Fucoxanthin 50 mg per day, 10 weeks): 6.92 ± 0.31 kJ/min | Energy Expenditure (Fucoxanthin 50 mg per day, 16 weeks): 7.37 ± 0.35 kJ/min | Energy Expenditure (Fucoxanthin 50 mg per day, Baseline): 6.04 ± 0.24 kJ/min | Total Energy Expenditure, to (end value) (Fucoxanthin 50 mg per day): 10613, kJ/24 h | Change in Total Energy Expenditure, Net (Fucoxanthin 50 mg per day, p < 0.001 vs placebo): Net 1915 ± 246 kJ/24 h
